The source of these data is patent US8846746B2, “Pyrazole compound and pharmaceutical use thereof” (Japan Tobacco Inc., priority 2011, dated 2014).

The target in one test is human SGLT1 (Homo sapiens (Human), UniProt P13866). Kind of test: SGLT1 inhibitory activity: 14C-AMG uptake into CHO-K1 cell line stably expressing human SGLT1. It is filed as cell-based. The following applies: 14C-AMG uptake, CHO-K1 cells expressing human SGLT1. The method, then: SGLT1 inhibitory activity of a test compound (IC50 value) was calculated based on an amount of intake into a cell of labeled α-methyl-D-glucopyranoside (^14C-AMG) which is transported by SGLT1.
human SGLT1, sequence (P13866 whole entry): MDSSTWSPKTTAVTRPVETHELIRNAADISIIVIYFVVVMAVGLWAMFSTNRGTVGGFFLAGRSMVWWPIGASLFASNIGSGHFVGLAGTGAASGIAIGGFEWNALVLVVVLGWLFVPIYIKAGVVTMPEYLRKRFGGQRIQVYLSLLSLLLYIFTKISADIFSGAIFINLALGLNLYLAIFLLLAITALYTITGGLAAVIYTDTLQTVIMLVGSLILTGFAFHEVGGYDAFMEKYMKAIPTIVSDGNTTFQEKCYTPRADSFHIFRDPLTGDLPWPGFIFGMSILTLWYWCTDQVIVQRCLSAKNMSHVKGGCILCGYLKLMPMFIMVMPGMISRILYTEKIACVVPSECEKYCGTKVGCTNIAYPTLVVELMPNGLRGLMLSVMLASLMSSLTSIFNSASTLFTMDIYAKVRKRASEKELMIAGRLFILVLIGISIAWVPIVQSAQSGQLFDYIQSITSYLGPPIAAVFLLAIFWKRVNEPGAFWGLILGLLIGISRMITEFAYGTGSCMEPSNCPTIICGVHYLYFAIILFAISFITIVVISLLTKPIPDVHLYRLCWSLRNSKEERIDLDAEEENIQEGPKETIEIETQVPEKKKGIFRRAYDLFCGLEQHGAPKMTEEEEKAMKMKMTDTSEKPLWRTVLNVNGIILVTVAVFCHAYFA
1) Construction of Human SGLT1 Expression Plasmid
A DNA fragment containing human SGLT1, wherein NheI recognition and cleavage sequence was added upstream of a Kozac consensus sequence of the vector; and a stop codon (TAG) and a SalI recognition and cleavage sequence was added just downstream of a coding region of the human SGLT1, was amplified by PCR using pCMV6-hSGLT1 (OriGene) as a template. The purified DNA fragment was cleaved by restriction enzymes NheI and SalI, and the obtained fragment was ligated into pcDNA3.1 (+) which was cleaved by NheI and XhoI to construct human SGLT1 expression plasmid.
2) Establishment of Stable Cell Lines Expressing Human SGLT1
A human SGLT1 expression plasmid pcDNA-hSGLT1 was transfected into CHO-K1 cells by Lipofectamine-2000 (Invitrogen). The cells were cultured in the presence of G418 (Nakalai tesque) and drug-resistant cells were selected. A cell line having the highest S/B ratio of an amount of ^14C-AMG uptake per cell treated by solvent to an amount of ^14C-AMG uptake per cell treated by phlorizin (SGLT inhibitor) was selected from the drug-resistant cells as a stable cell lines expressing human SGLT1.
3) Evaluation of SGLT1 Inhibitory Activity
The stable cell line expressing human SGLT1 was seeded at 5×10^4 cells/well on BioCoat™ Poly-D-Lysine 96 well plate with Lid (Becton Dickinson and Company) and cultured at 37° C. under 5% CO2 overnight. The medium was replaced with 100 μL/well of a Na (−) buffer (140 mM choline chloride, 2 mM KCl, 1 mM MgCl2, 1 mM CaCl2, 10 mM HEPES, 5 mM Tris, pH7.4) followed by incubation for 20 minutes at 37° C. under 5% CO2. After removing the Na (−) buffer, a test compound solution which was prepared from Na (+) buffer (140 mM NaCl, 2 mM KCl, 1 mM MgCl2, 1 mM CaCl2, 10 mM HEPES, 5 mM Tris, pH7.4) containing BSA was added thereto at 40 μL/well. In addition, Na (+) buffer containing 8 kBq of ^14C-AMG and 2 mM AMG was added thereto at 40 μL/well, and was mixed well. Na (−) buffer containing BSA was added to a blank well at 40 μL/well and additionally adding a Na (+) buffer containing 8 kBq of ^14C-AMG and 2 mM AMG, and was mixed well. Cells were incubated for 1 hour at 37° C. under 5% CO2. After the reaction, the cells were washed twice with 100 μL/well of iced wash buffer (100 mM AMG, 140 mM choline chloride, 2 mM KCl, 1 mM MgCl2, 1 mM CaCl2, 10 mM HEPES, 5 mM Tris, pH7.4), then lysed in 50 μL/well of a 0.2N aqueous solution of NaOH. The cell lysate was transferred to OptiPlate96 (Perkin-Elmer) and 100 μL/well of MicroScint-40 (Perkin-Elmer) was dispensed. The radioactivity was counted by TOPCOUNT NXT (Perkin-Elmer).
A data was obtained by deducting the average value (CPM) of blank wells from the average value (CPM) of each treated well. The inhibition ratio (%) was calculated by the following formula: inhibition rate (%)=[(A−B)/A]×100, where A is a data of the solvent control, and B is a data of a test compound.
Compound `CC(C)Cc1cccc(-c2cc(NC(=O)[C@@H]3CNC(=O)C3)nn2-c2ccccc2)c1` [Example 71] came in with a half-maximal inhibitory concentration (IC50) of 3.5 nM.
On the same count and under the same terms, with `CCC(F)(F)c1cccc(-c2cc(NC(=O)[C@H]3CNC(=O)C3)nn2-c2ccccc2)c1` [Example 72] the figure was 4.7 nM; with `CCC(F)(F)c1cccc(-c2cc(NC(=O)[C@@H]3CNC(=O)C3)nn2-c2ccccc2)c1` [Example 73], 13 nM; with `CCCc1cc(F)cc(-c2cc(NC(=O)[C@H]3CNC(=O)C3)nn2-c2ccccc2)c1` [Example 74], 3.1 nM.
`CCCc1cc(F)cc(-c2cc(NC(=O)[C@@H]3CNC(=O)C3)nn2-c2ccccc2)c1` [Example 75] returned an IC50 of 3.9 nM.
The same measure, in the same setting: with `CCCc1cccc(-c2cc(NC(=O)[C@H]3CNC(=O)C3)nn2-c2cccc(C)c2)c1` [Example 76] the figure was 1.7 nM; with `CCCc1cccc(-c2cc(NC(=O)[C@@H]3CNC(=O)C3)nn2-c2cccc(C)c2)c1` [Example 77], 2 nM; with `CC1(C)CCC=C(c2cc(NC(=O)[C@H]3CNC(=O)C3)nn2-c2ccccc2)C1` [Example 78], 7.7 nM.
`CC1(C)C=C(c2cc(NC(=O)[C@H]3CNC(=O)C3)nn2-c2ccccc2)CCC1` [Example 79]: the midpoint of inhibition, the IC50, lay at 22 nM.
The same measure, in the same setting: as for `CC(C)(O)c1cccc(-c2cc(NC(=O)[C@H]3CNC(=O)C3)nn2-c2ccccc2)c1` [Example 80], the figure is 220 nM.
`COC(C)(C)c1cccc(-c2cc(NC(=O)[C@H]3CNC(=O)C3)nn2-c2ccccc2)c1` [Example 82] displayed an IC50 of 12 nM.
Compound `COC(C)(C)c1cccc(-c2cc(NC(=O)[C@@H]3CNC(=O)C3)nn2-c2ccccc2)c1` [Example 83] showed an IC50 of 11 nM.
For the compound `CC(C)(C)c1cccc(-c2cc(NC(=O)[C@H]3CNC(=O)C3)nn2C2CCCCCC2)c1` [Example 84], the concentration for half-maximal inhibition (IC50) is 7.2 nM.
On the same count and under the same terms, as for `O=C1C[C@@H](C(=O)Nc2cc(-c3cccc(OC(F)(F)F)c3)n(C3CCCCCC3)n2)CN1` [Example 85], the figure is 50 nM; as for `CCCc1cccc(-c2cc(NC(=O)[C@H]3CNC(=O)C3)nn2C(F)(F)F)c1` [Example 86], 54 nM; as for `CCCc1cccc(-c2cc(NC(=O)[C@@H]3CNC(=O)C3)nn2C(F)(F)F)c1` [Example 87], 110 nM.
In turn, `O=C1C[C@@H](C(=O)Nc2cc(-c3cccc(C4CC4)c3)n(-c3ccccc3)n2)CN1` [Example 92] had an IC50 of 25 nM.
Same read-out and setting: with `O=C1C[C@H](C(=O)Nc2cc(-c3cccc(C4CC4)c3)n(-c3ccccc3)n2)CN1` [Example 93] the figure was 31 nM; with `CCCc1cccc(-c2cc(NC(=O)[C@H]3CNC(=O)C3)nn2-c2cccc(Cl)c2)c1` [Example 95], 2.4 nM; with `CCCc1cccc(-c2cc(NC(=O)[C@@H]3CNC(=O)N3)nn2-c2ccccc2)c1` [Example 97], 10 nM.
Still for that read-out and setting: with `CCCc1cccc(-c2cc(NC(=O)[C@H]3CNC(=O)C3)nn2Cc2ccccc2)c1` [Example 98] the figure was 30 nM.
Still for that read-out and setting: with `CCCc1cccc(-c2cc(NC(=O)[C@@H]3CNC(=O)C3)nn2Cc2ccccc2)c1` [Example 99] the figure was 73 nM; with `CCCc1cccc(-c2cc(NC(=O)[C@H]3CNC(=O)C3)nn2-c2ccccc2Cl)c1` [Example 100], 1.9 nM.
The compound `CCCc1cccc(-c2cc(NC(=O)[C@@H]3CNC(=O)C3)nn2-c2ccccc2Cl)c1` [Example 101] registered a half-maximal inhibitory concentration (IC50) of 2.4 nM.
`CCCc1cccc(-c2cc(NC(=O)[C@H]3CNC(=O)C3)nn2-c2ccccc2C)c1` [Example 102] displayed an IC50 of 2.2 nM.
Same read-out and setting: as for `CCCc1cccc(-c2cc(NC(=O)[C@H]3CNC(=O)C3)nn2-c2cccc(F)c2)c1` [Example 103], the figure is 5 nM; as for `CCCc1cccc(-c2cc(NC(=O)[C@@H]3CNC(=O)C3)nn2-c2cccc(F)c2)c1` [Example 104], 9.8 nM.
Same read-out and setting: with `O=C1C[C@@H](C(=O)Nc2cc(-c3cccc(OC(F)(F)F)c3)n(-c3ccc(Cl)cc3)n2)CN1` [Example 105] the figure was 37 nM.
The same measure, in the same setting: with `O=C1C[C@@H](C(=O)Nc2cc(-c3cccc(OC(F)(F)F)c3)n(-c3cccc(Cl)c3)n2)CN1` [Example 106] the figure was 6.8 nM; with `CCCc1cccc(-c2cc(NC(=O)[C@H]3CNC(=O)C3)nn2CCc2ccccc2)c1` [Example 107], 44 nM; with `CC(C)(C)c1cccc(-c2cc(NC(=O)[C@H]3CNC(=O)C3)nn2CCc2ccccc2)c1` [Example 109], 65 nM.
`O=C1C[C@@H](C(=O)Nc2cc(-c3cccc(OC(F)(F)F)c3)n(CCc3ccccc3)n2)CN1` [Example 110] displayed an IC50 of 85 nM.
`CCCc1cccc(-c2cc(NC(=O)[C@H]3CNC(=O)C3)nn2CC2CCCCC2)c1` [Example 111] came in with an IC50 of 46 nM.
Compound `CCCc1cccc(-c2cc(NC(=O)[C@@H]3CNC(=O)C3)nn2CC2CCCCC2)c1` [Example 112] showed an IC50 of 83 nM.
On the same count and under the same terms, with `CCCc1cccc(-c2cc(NC(=O)[C@H]3CNC(=O)C3)nn2CCC2CCCCC2)c1` [Example 113] the figure was 12 nM.
In the case of `CCCc1cccc(-c2cc(NC(=O)[C@@H]3CNC(=O)C3)nn2CCC2CCCCC2)c1` [Example 114], the IC50 amounted to 27 nM.
The compound `O=C1C[C@@H](C(=O)Nc2cc(-c3cccc(O)c3)n(-c3ccccc3)n2)CN1` [Example 118] registered an IC50 of 9300 nM.
As for `O=C1C[C@@H](C(=O)Nc2cc(-c3cccc(CO)c3)n(-c3ccccc3)n2)CN1` [Example 119], it took 570 nM to reach half-maximal inhibition (IC50).
For the compound `CCCc1cccc(-c2cc(NC(=O)[C@H]3CNC(=O)C3)nn2-c2ccc(OC)cc2)c1` [Example 121], the IC50 amounted to 11 nM.
The same measure, in the same setting: with `CCCc1cccc(-c2cc(NC(=O)[C@H]3CNC(=O)C3)nn2-c2cccc(OC)c2)c1` [Example 123] the figure was 5 nM; with `CCCc1cccc(-c2cc(NC(=O)[C@H]3CNC(=O)C3)nn2-c2cccc(OCC(=O)O)c2)c1` [Example 124], 170 nM; with `CCCc1cccc(-c2cc(NC(=O)[C@@H]3CNC(=O)N3C)nn2-c2ccccc2)c1` [Example 125], 17 nM.
In turn, `CC(C)(C)c1cccc(-c2cc(NC(=O)[C@H]3CNC(=O)C3)nn2-c2cccc(Cl)c2)c1` [Example 126] returned an IC50 of 1.2 nM.
Same read-out and setting: as for `Cc1cccc(-n2nc(NC(=O)[C@H]3CNC(=O)C3)cc2-c2cccc(C(C)(C)C)c2)c1` [Example 127], the figure is 1.4 nM; as for `O=C1C[C@@H](C(=O)Nc2cc(-c3cccc(OC(F)(F)F)c3)n(CCC3CCCCC3)n2)CN1` [Example 128], 17 nM.
Compound `CC(C)(C)c1cccc(-c2cc(NC(=O)[C@H]3CNC(=O)C3)nn2CCC2CCCCC2)c1` [Example 129] returned a 50% inhibitory concentration (IC50) of 28 nM.
`O=C1C[C@@H](C(=O)Nc2cc(-c3cccc(OC(F)(F)F)c3)n(-c3ccccc3Cl)n2)CN1` [Example 130]: inhibition was half-maximal at 1.3 nM (IC50).
`O=C1C[C@@H](C(=O)Nc2cc(-c3cccc(OC(F)(F)F)c3)n(-c3ccccc3F)n2)CN1` [Example 131] had a concentration for half-maximal inhibition (IC50) of 6.3 nM.
Still for that read-out and setting: as for `CC(C)(C)c1cccc(-c2cc(NC(=O)[C@H]3CNC(=O)C3)nn2-c2ccccc2Cl)c1` [Example 132], the figure is 0.9 nM.
Compound `CCCc1cccc(-c2cc(NC(=O)[C@H]3CNC(=O)C3)nn2-c2ccccc2OC)c1` [Example 133] gave an IC50 of 11 nM.

The same test, now with this note: CHO-K1, at 0.1 uM.
The compound `CCCc1cccc(-c2cc(NC(=O)[C@@H]3CNC(=O)C3)nn2CCc2ccccc2)c1` [Example 108] returned an inhibition at 0.1 µM of 45%.

Still in this test, the particulars now being: CHO-K1, at 0.3 uM.
In turn, `CC(C)(O)c1cccc(-c2cc(NC(=O)[C@@H]3CNC(=O)C3)nn2-c2ccccc2)c1` [Example 81] gave an inhibition at 0.3 µM of 43%.

Staying with this test, now noted: CHO-K1, at 1 uM.
In turn, `CCCc1cc(-c2cc(NC(=O)[C@H]3CNC(=O)C3)nn2-c2ccccc2)ccc1OCC(=O)O` [Example 122] came in with an inhibition at 1 µM of 9%.
